ChEMBL document CHEMBL5352498, “Aza-Residue Modulation of Cyclic d,l-α-Peptide Nanotube Assembly with Enhanced Anti-Amyloidogenic Activity” (J Med Chem, 2023)
Calls of active or inactive are those of the source. No cut-off for these calls is given here. Where a SMILES comes first, the peptide text is derived from it. [ ]: non-standard residue; d: D form. Nle = CCCC[C@H](N)C(=O)O

Experiments:
[1] = target: Amyloid-beta precursor protein (Homo sapiens) (UniProt P05067); assay: Inhibition of amyloid beta 40 (unknown origin) aggregation assessed as reduction in fibril formation by measuring fluorescence intensity at 100 to 500 uM measured for 72 hrs by ThT flourescence assay; details: dose 100-500 µM
[2] = target: Amyloid-beta precursor protein (Homo sapiens) (UniProt P05067); assay: Inhibition of amyloid beta 40 (unknown origin) aggregation assessed as reduction in fibril formation by measuring fluorescence intensity at compound:Abeta40 concentration ratio of 1:5 and measured for 72 hrs by ThT flourescence assay relative to control
[3] = target: Amyloid-beta precursor protein (Homo sapiens) (UniProt P05067); assay: Induction of amyloid beta 40 fibrils (unknown origin) disaggregation assessed as decrease in relative fluorescence intensity at 500 uM incubated for 24 hrs ThT flourescence assay relative to control; parameters: scale not given: the % may be the effect or the level left
[4] = target: Amyloid-beta precursor protein (Homo sapiens) (UniProt P05067); assay: Inhibition of amyloid beta 42 (unknown origin) aggregation assessed as decrease in fibril formation by measuring fluorescence intensity and measured for 72 hrs by ThT flourescence assay
PC-12 [5] = assay: Neuroprotective activity against amyloid beta 40-induced cytotoxicity in rat PC12 cells assessed as increase in cell viability at compound:Abeta40 concentration ratio of 1:5 and incubated for 24 hrs by MTT assay relative to control; assay type: functional
PC-12 [6] = assay: Neuroprotective activity against amyloid beta 40-induced cytotoxicity in rat PC12 cells assessed as increase in cell viability at compound:Abeta40 concentration ratio of 1:1 and incubated for 24 hrs by MTT assay relative to control; assay type: functional, cell-based
PC-12 [7] = assay: Cytotoxicity against rat PC12 cells assessed as reduction in cell viability at 100 uM incubated for 24 hrs by MTT assay; assay type: toxicity, cell-based; details: pc-12, 24 h
[8] = target: Amyloid-beta precursor protein (Homo sapiens) (UniProt P05067); assay: Inhibition of amyloid beta 40 (unknown origin) self aggregation assessed as change in fibril morphology at 500 uM incubated for 72 hrs by TEM analysis
[9] = target: Amyloid-beta precursor protein (Homo sapiens) (UniProt P05067); assay: Inhibition of amyloid beta 40 (unknown origin) aggregation assessed as assessed as decrease in oligomer formation by measuring decrease in oligomer-specific A11 antibody spots at 150 uM and measured for 48 hrs by Dot-Blot assay
Caenorhabditis elegans [10] = assay: Neuroprotective activity in transgenic Caenorhabditis elegans GMC101 Alzheimer's disease model overexpressing human amyloid beta (1 to 42 residues) in body-wall muscle assessed as reduction in fibril-specific […] antibody spots incubated for 48 hrs by immunochemical dot-blot analysis; assay type: functional, organism-based
Caenorhabditis elegans [11] = assay: Neuroprotective activity in transgenic Caenorhabditis elegans GMC101 Alzheimer's disease model overexpressing human amyloid beta (1 to 42 residues) in body-wall muscle assessed as delay in amyloid beta 42-induced paralysis at 5 to 50 uM incubated for 48 hrs; assay type: functional, organism-based; details: dose 5-50 µM
Caenorhabditis elegans [12] = assay: Neuroprotective activity in transgenic Caenorhabditis elegans GMC101 Alzheimer's disease model expressing human amyloid beta (1 to 42 residues) in body-wall muscle assessed as increase in fraction of unparalyzed worms at 5 uM incubated for 48 hrs (Rvb= 56%); assay type: functional
Caenorhabditis elegans [13] = assay: Neuroprotective activity against wild type Caenorhabditis elegans CL2122 assessed as delay in amyloid beta 42-induced paralysis at 50 uM incubated for 48 hrs; assay type: functional, organism-based
Caenorhabditis elegans [14] = assay: Neuroprotective activity against transgenic Caenorhabditis elegans CL2355 Alzheimer's disease model expressing human amyloid beta (1 to 42 residues) in neuron assessed as increase in motility at 5 to 50 uM incubated for 36 hrs at 16 degreeC and 36 hrs at 23 degreeC; assay type: functional, organism-based; details: dose 5-50 µM, time 72.0 hrs
Caenorhabditis elegans [15] = assay: (§1) Neuroprotective activity against transgenic Caenorhabditis elegans CL2355 Alzheimer's disease model expressing human amyloid beta (1 to 42 residues) in neuron assessed as increase in motility by measuring bending frequency at 5 uM incubated for 36 hrs at 16 degreeC and 36 hrs at 23 degreeC (reference value: 74); assay type: functional; details: time 72 hrs
Caenorhabditis elegans [16] = assay: Neuroprotective activity against transgenic Caenorhabditis elegans CL2355 Alzheimer's disease model expressing human amyloid beta (1 to 42 residues) in neuron assessed as neutralization of damaging effect of amyloid beta aggregation by measuring increase in chemotaxis index at 50 uM incubated for 36 hrs at 16 degreeC and 36 hrs at 23 degreeC by Chemotaxis Assay; assay type: functional, organism-based; details: time 72.0 hrs
Caenorhabditis elegans [17] = assay: Neuroprotective activity in transgenic Caenorhabditis elegans GMC101 Alzheimer's disease model overexpressing human amyloid beta (1 to 42 residues) in body-wall muscle assessed as reduction in oligomeric-specific A11 antibody spots incubated for 48 hrs by immunochemical dot-blot analysis; assay type: functional, organism-based
Caenorhabditis elegans [18] = assay: Neuroprotective activity in transgenic Caenorhabditis elegans GMC101 Alzheimer's disease model overexpressing human amyloid beta (1 to 42 residues) in body-wall muscle assessed as reduction in amyloid beta fibrils incubated for 48 hrs by Western blot analysis; assay type: functional, organism-based
Caenorhabditis elegans [19] = assay: Neuroprotective activity in transgenic Caenorhabditis elegans GMC101 Alzheimer's disease model overexpressing human amyloid beta (1 to 42 residues) in body-wall muscle assessed as reduction in amyloid beta oligomers incubated for 48 hrs by Western blot analysis; assay type: functional, organism-based
[20] = target: Amyloid-beta precursor protein (Homo sapiens) (UniProt P05067); assay: Inhibition of amyloid beta 40 (unknown origin) aggregation assessed as decrease in […] conformation of protein secondary structure at 50 uM incubated for 24 hrs by Circular dichroism spectroscopy analysis
Caenorhabditis elegans [21] = assay: Neuroprotective activity against wild type Caenorhabditis elegans CL2122 assessed as motility changes by measuring worms bending frequency at 50 uM incubated for 36 hrs at 16 degreeC and 36 hrs at 23 degreeC; assay type: functional, organism-based; details: time 72.0 hrs
[22] = target: Amyloid-beta precursor protein (Homo sapiens) (UniProt P05067); assay: Inhibition of amyloid beta 40 (unknown origin) aggregation assessed as reduction in fibril formation by measuring fluorescence intensity at compound:Abeta40 concentration ratio of 1:1 and measured for 72 hrs by ThT flourescence assay relative to control
Caenorhabditis elegans [23] = assay: Neuroprotective activity against transgenic Caenorhabditis elegans GMC101 Alzheimer's disease model expressing human amyloid beta 42 assessed as increase in fractional of unparalyzed worms at 5 uM (Rvb=51%); assay type: functional
Caenorhabditis elegans [24] = assay: as §1, with “72)” for “74)”; assay type: functional; details: time 72 hrs
Caenorhabditis elegans [25] = assay: Neuroprotective activity against transgenic Caenorhabditis elegans CL2355 Alzheimer's disease model expressing human amyloid beta (1 to 42 residues) in neuron assessed as increase in chemotaxis index at 50 uM incubated for 36 hrs at 16 degreeC and 36 hrs at 23 degreeC by Chemotaxis Assay (0.22; assay type: functional; details: time 72 hrs
[26] = target: Amyloid-beta precursor protein (Homo sapiens) (UniProt P05067); assay: Inhibition of amyloid beta 40 (unknown origin) aggregation assessed as assessed as decrease in fibril formation by measuring decrease in fibril-specific OC antibody spots at 150 uM and measured for 48 hrs by Dot-Blot assay
[27] = target: Amyloid-beta precursor protein (Homo sapiens) (UniProt P05067); assay: Inhibition of amyloid beta 42 (unknown origin) aggregation assessed as reduction in fibril formation by measuring fluorescence intensity at compound:Abeta42 concentration ratio of 1:5 and measured for 72 hrs by ThT flourescence assay relative to control
[28] = target: Amyloid-beta precursor protein (Homo sapiens) (UniProt P05067); assay: Inhibition of amyloid beta 40 (unknown origin) self aggregation assessed as decrease in fibril formation at 500 uM incubated for 72 hrs by TEM analysis

Chain of Amyloid-beta precursor protein (Homo sapiens) (P05067 whole entry, the tested form may be a part): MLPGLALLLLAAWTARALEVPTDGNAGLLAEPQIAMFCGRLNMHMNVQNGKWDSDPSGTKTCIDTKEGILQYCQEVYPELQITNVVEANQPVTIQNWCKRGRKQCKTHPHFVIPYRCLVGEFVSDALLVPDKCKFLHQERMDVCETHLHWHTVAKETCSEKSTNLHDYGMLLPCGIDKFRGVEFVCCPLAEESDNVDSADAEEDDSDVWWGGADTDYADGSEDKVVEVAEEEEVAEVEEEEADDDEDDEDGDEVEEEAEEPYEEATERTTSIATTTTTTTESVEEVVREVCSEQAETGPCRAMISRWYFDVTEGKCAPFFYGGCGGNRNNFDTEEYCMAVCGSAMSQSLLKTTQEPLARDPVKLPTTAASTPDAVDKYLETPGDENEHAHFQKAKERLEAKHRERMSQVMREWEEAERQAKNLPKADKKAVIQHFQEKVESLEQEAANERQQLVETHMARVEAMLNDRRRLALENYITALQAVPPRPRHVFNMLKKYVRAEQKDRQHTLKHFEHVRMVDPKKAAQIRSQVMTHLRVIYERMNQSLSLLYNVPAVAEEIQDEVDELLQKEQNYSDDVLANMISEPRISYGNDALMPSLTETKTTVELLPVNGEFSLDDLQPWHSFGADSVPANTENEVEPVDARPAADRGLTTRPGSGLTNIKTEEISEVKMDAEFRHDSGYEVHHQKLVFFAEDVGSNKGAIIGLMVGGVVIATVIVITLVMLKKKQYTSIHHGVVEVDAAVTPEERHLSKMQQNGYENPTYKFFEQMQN

Row | SMILES | inhibition [1] | inhibition [2] | Activity [3] | inhibition [4] | Activity (PC-12 [5]) | Activity (PC-12 [6]) | Activity (PC-12 [7]) | inhibition [9] | inhibition [20] | inhibition [22] | inhibition [26] | other results
1 | CCCC[C@@H]1NC(=O)[C@@H](CC(C)C)NC(=O)[C@H](CCCCN)NC(=O)N(CCO)NC(=O)[C@H](Cc2c[nH]cn2)NC(=O)[C@@H](Cc2c[nH]c3ccccc23)NC1=O (racemic) | Active | Active | < 50% | Active | >90% | Active | Non-Toxic | Active | 60% | – | – | inhibition [8]: Active; Activity (Caenorhabditis elegans [10]): Active; Activity (Caenorhabditis elegans [11]): Dose-Dependent Effect; Activity (Caenorhabditis elegans [12]): 60%; Activity (Caenorhabditis elegans [13]): inactive; Activity (Caenorhabditis elegans [14]): Dose-Dependent Effect; Activity (Caenorhabditis elegans [15]): 79; Activity (Caenorhabditis elegans [16]): Active; Activity (Caenorhabditis elegans [17]): Active; Activity (Caenorhabditis elegans [18]): Active; Activity (Caenorhabditis elegans [19]): Active; Activity (Caenorhabditis elegans [21]): inactive
2 | CCCC[C@@H]1NC(=O)[C@@H](CC(C)C)NC(=O)[C@H](CCCCN)NC(=O)[C@@H](CO)NC(=O)[C@H](Cc2c[nH]cn2)NC(=O)[C@@H](Cc2c[nH]c3ccccc23)NC1=O (cyclo(K[dL][Nle][dW]H[dS])) | – | 89% | 33% | – | 88% | – | Non-Toxic | – | – | 50% | – | Activity (Caenorhabditis elegans [23]): 86%; Activity (Caenorhabditis elegans [24]): 82; Activity (Caenorhabditis elegans [25]): 0.32
3 | CCCC[C@@H]1NC(=O)N(CC(C)C)NC(=O)[C@H](CCCCN)NC(=O)[C@@H](CO)NC(=O)[C@H](Cc2c[nH]cn2)NC(=O)[C@@H](Cc2c[nH]c3ccccc23)NC1=O (racemic) | Active | inactive | 72% | – | – | – | Toxic | inactive | Active | inactive | inactive | –
4 | CCCC[C@@H]1NC(=O)[C@@H](CC(C)C)NC(=O)[C@H](CCCCN)NC(=O)[C@@H](CO)NC(=O)[C@H](Cc2c[nH]cn2)NC(=O)N(Cc2cc3ccccc3[nH]2)NC1=O | Active | Active | < 50% | inactive | – | – | Toxic | inactive | inactive | – | inactive | –
5 | CCCCN1NC(=O)[C@@H](CC(C)C)NC(=O)[C@H](CCCCN)NC(=O)[C@@H](CO)NC(=O)[C@H](Cc2c[nH]cn2)NC(=O)[C@@H](Cc2c[nH]c3ccccc23)NC1=O (racemic) | Active | 88% | < 50% | Active | >90% | Active | Non-Toxic | Active | inactive | 93% | Active | inhibition [27]: 87.6%; inhibition [28]: Active; Activity (Caenorhabditis elegans [10]): Active; Activity (Caenorhabditis elegans [11]): Dose-Dependent Effect; Activity (Caenorhabditis elegans [12]): 76%; Activity (Caenorhabditis elegans [13]): inactive; Activity (Caenorhabditis elegans [14]): Dose-Dependent Effect; Activity (Caenorhabditis elegans [15]): 79; Activity (Caenorhabditis elegans [16]): Active; Activity (Caenorhabditis elegans [17]): Active; Activity (Caenorhabditis elegans [18]): Active; Activity (Caenorhabditis elegans [19]): Active; Activity (Caenorhabditis elegans [21]): inactive
6 | CCCC[C@@H]1NC(=O)[C@@H](CC(C)C)NC(=O)N(CCCCN)NC(=O)[C@@H](CO)NC(=O)[C@H](Cc2c[nH]cn2)NC(=O)[C@@H](Cc2c[nH]c3ccccc23)NC1=O (racemic) | Active | inactive | < 50% | Active | >90% | Active | Non-Toxic | Active | Active | inactive | – | inhibition [8]: Active
7 | CCCC[C@@H]1NC(=O)[C@@H](CC(C)C)NC(=O)[C@H](CCCCN)NC(=O)[C@@H](CO)NC(=O)N(Cc2c[nH]nn2)NC(=O)[C@@H](Cc2c[nH]c3ccccc23)NC1=O (racemic) | Active | Active | < 50% | Active | >90% | – | Non-Toxic | Active | 60% | – | Active | –
